The values below come from patent US20100022637A1, “IDENTIFICATION OF ANTI-CANCER COMPOUNDS AND COMPOUNDS FOR TREATING HUNTINGTON'S DISEASE AND METHODS OF TREATMENT THEREOF” (THE TRUSTEES OF COLUMBIA UNIVERSITY IN THE CITY OF NEW YORK, priority 2005, published 2010).

In data set [1] the test system is RKO-E6 cells. As to the kind of experiment: Alamar Blue viability assay, RKO-E6. As to conditions: for effect on doxorubicin's lethality in RKO-E6 cells: co-treatment with 0.5 μg/ml doxorubicin, 24 h. In kind it is cell-based, human. As for the experimental part:
(§1) RKO colon carcinoma, human (ATCC, order # CRL-2577), RKO-E6 colon carcinoma transfected with HPV E6 inserted in pCMV.3 (ATCC, order # CRL-2578) were grown in MEM with 2 mM L-glutamine and Earle's BBS adjusted to contain 1.5 g/L NaHCO3, 0.1 mM non-essential amino acids and 1.0 mM sodium pyruvate, and supplemented with 10% fetal bovine serum, penicillin and streptomycin (pen/strep). Both cell lines were incubated at 37° C. in a humidified incubator containing 5% CO2.
The Alamar Blue assay incorporates a fluorimetric/colorimetric growth indicator that changes color in the response to chemical reduction by viable cells (Nociari 1998). Cells were seeded at a density of 3,000 cells (57 μl) per well in a 384-well black, clear-bottom plates using a syringe bulk dispenser (Zymark Sciclone ALH). Three microliters were removed from a compound daughter plate using a 384 fixed cannula head and added to the assay plate, making the final concentration 4 μg/ml. The plates were incubated for 24 h at 37° C. 10 μl of 40% Alamar Blue (Biosource Int., cat #DAL1100) solution in media was added to each well (1:10 dilution). The assay plates were incubated for 16h. Fluorescence intensity was determined using a Packard Fusion platereader with a 535 nm excitation filter and a 590 nm emission filter. The average fluorescence for the whole plate was used as a positive control. Average percentage inhibition for each well was determined using our freely available SLIMS software (Kelley et al., 2004).
The daughter plates for the 2-fold dilution series were prepared with a Zymark Sciclone ALH by diluting the replica daughter plates to obtain compound concentrations from 8 μg/ml-0.008 μg/ml (columns 8-18). Columns 1-7 were used as untreated control. RKO-E6 cells were seeded at the density of 3,000 per well in 55 μl, and 5 μl were added from the daughter plate. RKO cells were seeded at the density of 2,000 per well in 55 μl, and 5 μl were added from the daughter plate. The assay was incubated for 24 h at 37° C. 10% Alamar Blue was added to each well and the assay was incubated for 16 h (see above). Compounds for retesting were purchased from the manufacturers or from Sigma-Aldrich (see above). Stocks were prepared in DMSO at 4 mg/ml.
(§2) Each cell line (RKO, RKO-E6, HeLa and TC32) was treated with a dose combination matrix of doxorubicin and a selected hit compound. Each treatment was done in a triplicate in 384-well format. The average percent inhibition of cell proliferation, measured with Alamar Blue, was determined using the following formula: […]
(Resazurin is reduced to fluorescent resorufin, in cell work by metabolically active cells.)

The subject of data set [2] is RKO cells. Put plainly: Alamar Blue viability assay, RKO. The format is cell-based, human. The conditions noted are these: in words. As for the experimental part:
as §1
The Alamar Blue assay incorporates a fluorimetric/colorimetric growth indicator that changes color in the response to chemical reduction by viable cells (Nociari 1998). Cells were seeded at a density of 3,000 cells (57 μl) per well in a 384-well black, clear-bottom plates using a syringe bulk dispenser (Zymark Sciclone ALH). […] Fluorescence intensity was determined using a Packard Fusion platereader with a 535 nm excitation filter and a 590 nm emission filter. The average fluorescence for the whole plate was used as a positive control. Average percentage inhibition for each well was determined using our freely available SLIMS software (Kelley et al., 2004). […]
Each cell line (RKO, RKO-E6, HeLa and TC32) was treated with a dose combination matrix of doxorubicin and a selected hit compound. […] The average percent inhibition of cell proliferation, measured with Alamar Blue, was determined using the following formula: […]

For data set [3], the system named is HeLa, TC32, A673, BJELR cells. Put plainly: Alamar Blue viability assay, other cancer cell lines. As to conditions: TC32 (A673 for T55D7). In kind it is cell-based. As for the experimental part: as §2
The subject of another data set is p53. Put plainly: Western blot of p53 (p21, MDM2) levels. The conditions noted are these: RKO-E6 cells; in words. The format is cell-based, human. The procedure: Protein content was quantified using a BioRad protein assay reagent (BioRad, cat #500-0006). Equal amounts of protein were resolved on SDS-polyacrylamide gels. Proteins were transferred onto a PVDF membrane, blocked with 5% milk, and incubated with the appropriate primary and secondary antibodies. […] To test for equivalent loading in each lane, blots were stripped, blocked and probed with an anti-eIF-4E antibody.
In general terms: A western blot detects proteins with antibodies after separation by electrophoresis.

Data set [4] deals with RKO-E6 cells. Put plainly: Flow cytometry cell cycle distribution, RKO-E6. The format is cell-based, human. As to conditions: 24 h, propidium iodide. As for the experimental part: (§3) RKO, RKO-E6 or HeLa cells were seeded in 20-cm dishes in 10 ml of growth medium. Cells were allowed to adhere and then treated with the selected compounds for 24 h. The treated cells were collected, washed 2× with PBS and counted. The cell pellet was re-suspended in 500 μl of ice cold PBS and 2-5 ml of cold 70% ethanol (−20° C.) were added. Cells were fixed for 1 h or overnight. 5-10 million cells were placed into a 15-ml conical tube and centrifuged at 1000 g. Cells were washed 2× with 1% calf serum in PBS. Cells were resuspended in 800 μl of 1% calf serum in PBS and 100 μl of Rnase (1 mg/ml) and 100 μl of propidium iodide (400 μg/ml) added. Cells were incubated at 37° C. for 30 min and then analyzed on flow cytometer.
A general note: A flow cytometer gives signals particle by particle.

In data set [5] the test system is RKO cells. As to the kind of experiment: Flow cytometry cell cycle distribution, RKO. In kind it is cell-based, human. The conditions noted are these: 24 h, propidium iodide. As for the experimental part: as §3
In the next data set the test system is N2 worms. The conditions noted are these: 6 mM; cited from earlier work.
Another data set has as its system N548 mutant cells. Put plainly: in vitro.
For a further data set, the system named is parental ST14A cells. Put plainly: Cell death rescue in parental cells (selectivity counter screen). In kind it is cell-based, rat. As to conditions: in words. The procedure: Cell death is indicated by a decrease in fluorescence. […] (with 5% CO2).
Identification of selective inhibitors of mutant-htt toxicity: As a first step towards probing mechanisms of action of these compounds, it was tested whether compounds selectively targeted pathways that are perturbed by mutant htt or if they suppressed a general death mechanism. Caspase activation was tested to see if it contributed to cell death in this model, since caspase-dependent pathways have been broadly implicated in cell death and in HD (Thornberry, N. and Y. Lazebnik, Science 1998, 281:1312-6; Sanchez Mejia, R and R. Friedlander Neuroscientist 2001, 7: 480-9; Hickey M. and M. Chesselet, Prog Neuropsychopharmacol Biol Psych 2003, 27: 255-65). Caspase activation was monitored via measuring the cleavage of specific fluorogenic caspase substrates. […] The decreased caspase activation in WT N548 cells was consistent with relative protection of these cells from cell death. […] Thus, the ability of a compound to rescue cell death in ST14A cells could be used as a selectivity filter to differentiate compounds that were selective for pathways selective for mutant htt induced cell death. The selectivity of rescue by a compound was determined by assessing rescue of cell death in parental ST14A cells. […]

The subject of the next data set is caspases. As to the kind of experiment: Caspase assay (fluorogenic AFC substrates). In kind it is cell-based, rat. The conditions noted are these: 50 μM; ST14A and N548 mutant cells, serum deprivation 39° C. The procedure: Caspase activity was measured using a fluorogenic assay (Biovision Inc. CA), based on cleavage of AFC (7-amino-4-trifluoromethyl coumarin) from specific AFC-conjugated peptide substrates by activated caspases. Each cell line was seeded at 10^6 cells/plate, incubated overnight at 33° C., and then incubated for 6 h at 39° C. in 0.5% IFS containing medium with or without BOC-D-fmk (50 μM). Four plates/sample were harvested in lysis buffer provided by the manufacturer. Peptide substrates were added to the cell lysate or to lysis buffer (control), incubated at 37° C. for 2 h, and fluorescence (ex 355/em 510 nm) measured on a plate reader (Perkin Elmer Victor^3). Fluorescence intensities of controls were subtracted from sample intensity and the resulting value normalized to protein in each sample (Bradford Assay from BioRad; Hercules, Calif.).

A further data set deals with topoisomerase IIα. Put plainly: Western blot of topoisomerase IIα level. The format is cell-based, human. As to conditions: RKO and/or RKO-E6 cells; in words. From the text:
Antibodies were obtained form the following suppliers: p53 (Oncogene/Calbiochem, cat #OP43), p21 (Santa Cruz Biotechnology inc., cat #sc-817), MDM2 (Santa Cruz Biotechnology Inc., cat #sc-965), Topoisomerase IIα (TopoGEN, cat #2011-1), Topoisomerase I (BD PharMingen, cat #556597), Cyclin B (BD Transduction Laboratories, cat #610219), Cyclin A (BD Transduction Laboratories, cat #611268), Anti-Fluorescein-HRP (Molecular Probes, cat #A21253), Anti-biotin-HRP (Cell Signaling Technology, cat #7075, Jackson ImmunoResearch Laboratories, cat #200-032-096), eIF4E (Santa Cruz Biotechnology Inc., cat #sc-9976 HRP).
Cells were lysed in denaturing lysis buffer (50 mM HEPES KOH [pH 7.4], 40 mM NaCl, 2 mM EDTA, 1.5 mM Na3VO4, 50 mM NaF, 10 mM sodium pyrophosphate, 10 mM sodium β-glycerophosphate, 0.5% Triton X-100, and protease inhibitor tablet [Roche, cat #11777700]). Protein content was quantified using a BioRad protein assay reagent (BioRad, cat #500-0006). Equal amounts of protein were resolved on SDS-polyacrylamide gels. Proteins were transferred onto a PVDF membrane, blocked with 5% milk, and incubated with the appropriate primary and secondary antibodies. […]

For `S=C1N(CN2CCOCC2)CCN1CN1CCOCC1` [Compound T55D7, 1,3-bis(4-morpholinylmethyl)-2-imidazolidinethione], the “concentrations with doxorubicin-independent lethality” value in the data set on RKO-E6 cells [1] (absence of doxorubicin) was in the range of 30 to 100 µM. For the same compound, the “effect on doxorubicin's lethality in RKO-E6 cells” value in the data set on RKO-E6 cells [1] (in words) was “increase both doxorubicin's and camptothecin's lethality”. The “effect on camptothecin's lethality” value in the data set on RKO-E6 cells [1] (co-treatment with camptothecin, in words) was “increase both doxorubicin's and camptothecin's lethality”. Further, the “effect on podophyllotoxin's lethality” value in the data set on RKO-E6 cells [1] (co-treatment with podophyllotoxin, in words) is listed as “did not increase the microtubule inhibitor podophylotoxin's lethality”. Further, the “Bliss Independence analysis of combination with doxorubicin” value with RKO-E6 cells [1] (combination dose matrix) is reported as “exceeded Bliss Independence with doxorubicin at multiple doses”. The “effect on doxorubicin's lethality in RKO cells” value in the data set on RKO cells [2] was “increase both doxorubicin's and camptothecin's lethality”. The “effect on doxorubicin's potency in other cell lines” value in data set [3] is listed as “upregulated doxorubicin's potency in other cell lines”. The “p53, p21, MDM2 levels” value with p53 is reported as “did not change p53 concentration”. In addition, the “cell cycle effect in RKO-E6 cells” value in the data set on RKO-E6 cells [4] is reported as “pronounced S-phase arrest”. For the same compound, the “cell cycle effect in RKO cells” value in the data set on RKO cells [5] was “virtually no changes in the cell cycle”.
For the compound `C[n+]1ccc(-c2cc[n+](C)cc2)cc1` [Paraquat], the toxicity in worms entry in the data set with N2 worms is listed as “toxic”.
For `COC(=O)CC(NC(=O)OC(C)(C)C)C(=O)CF` [BOC-D-fmk, reference compound], the “rescue of cell death in mutant N548 cells” value with N548 mutant cells (in words) is given as “rescued cell death”. Further, the EC50 in the data set on N548 mutant cells (nonselective hits (rescue also parental ST14A), 0.5% IFS, 39° C., 3 d) is 25 µM. In addition, the TC50 result in the data set on N548 mutant cells (nonselective hits, maximum concentration tested 80 μM) is listed as “ND(80)”. Moreover, the Activity with N548 mutant cells (nonselective hits, scale not defined) is on record as 3. For the same compound, the “rescue of cell death in parental ST14A cells” value in the data set with parental ST14A cells is on record as “rescued cell death”. Further, the caspase activation entry in the data set with caspases is recorded as “prevented caspase activation”.
Consider `C[C@@H]1C[C@@H]([C@H](O)CC2CC(=O)NC(=O)C2)C(=O)[C@@H](C)C1` [cycloheximide], for which, in the data set with RKO-E6 cells [1] (in words), the “effect on doxorubicin's lethality in RKO-E6 cells” value is reported as “potentiated doxorubicin's lethality”. The “p53, p21, MDM2 levels” value in the data set on p53 was “caused a disappearance of p53 and p21”. Besides, the “topoisomerase IIα levels” value with topoisomerase IIα is listed as “caused increased topoisomerase IIα levels”.

As a reminder, the EC50 is the concentration that produces a half-maximal response.
